Reference: ChEMBL document CHEMBL5154662, “Discovery of BP3 as an efficacious proteolysis targeting chimera (PROTAC) degrader of HSP90 for treating breast cancer” (Eur J Med Chem, 2022)
Active and inactive are the calls of the source. The rule behind the calls is not given here.

How the values were obtained:
MCF7 [1] = test: Antiproliferative activity against human MCF-7 cells assessed as inhibition of cell proliferation incubated for 72 hrs by MTT assay; type: functional, cell-based; settings: MCF7, 72 h
MDA-MB-231 = test: Antiproliferative activity against human MDA-MB-231 cells assessed as inhibition of cell proliferation incubated for 72 hrs by MTT assay; type: functional, cell-based; settings: MDA-MB-231, 72 h
[2] = target: T1, Protein cereblon/Heat shock protein HSP 90-alpha/Heat shock protein HSP 90-beta (Homo sapiens, UniProt P07900+P08238+Q96SW2); test: Protac activity at CRBN/HSP90 in human MCF7 cells assessed as maximum degradation of HSP90 measured after 6 hrs by western blot analysis relative to control; type: cell-based
T1 sequence (P08238 whole entry, other chains not shown): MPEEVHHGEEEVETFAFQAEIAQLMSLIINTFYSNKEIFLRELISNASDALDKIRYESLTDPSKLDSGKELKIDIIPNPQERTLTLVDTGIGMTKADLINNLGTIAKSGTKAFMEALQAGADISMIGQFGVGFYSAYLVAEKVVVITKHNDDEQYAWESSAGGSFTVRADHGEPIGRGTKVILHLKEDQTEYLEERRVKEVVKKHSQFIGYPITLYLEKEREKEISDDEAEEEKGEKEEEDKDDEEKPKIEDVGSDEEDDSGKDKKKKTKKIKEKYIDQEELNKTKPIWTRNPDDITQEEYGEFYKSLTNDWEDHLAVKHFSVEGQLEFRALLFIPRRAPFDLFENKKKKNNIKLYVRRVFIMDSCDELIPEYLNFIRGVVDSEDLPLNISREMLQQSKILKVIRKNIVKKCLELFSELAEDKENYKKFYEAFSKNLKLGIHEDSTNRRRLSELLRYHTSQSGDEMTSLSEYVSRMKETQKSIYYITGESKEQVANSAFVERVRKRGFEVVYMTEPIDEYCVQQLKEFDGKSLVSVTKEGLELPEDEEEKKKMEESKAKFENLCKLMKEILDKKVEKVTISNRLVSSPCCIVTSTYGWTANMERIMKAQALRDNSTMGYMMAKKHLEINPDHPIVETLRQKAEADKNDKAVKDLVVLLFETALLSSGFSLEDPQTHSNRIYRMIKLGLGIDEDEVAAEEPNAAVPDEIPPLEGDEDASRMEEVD
T1 sequence (Q96SW2 whole entry, other chains not shown): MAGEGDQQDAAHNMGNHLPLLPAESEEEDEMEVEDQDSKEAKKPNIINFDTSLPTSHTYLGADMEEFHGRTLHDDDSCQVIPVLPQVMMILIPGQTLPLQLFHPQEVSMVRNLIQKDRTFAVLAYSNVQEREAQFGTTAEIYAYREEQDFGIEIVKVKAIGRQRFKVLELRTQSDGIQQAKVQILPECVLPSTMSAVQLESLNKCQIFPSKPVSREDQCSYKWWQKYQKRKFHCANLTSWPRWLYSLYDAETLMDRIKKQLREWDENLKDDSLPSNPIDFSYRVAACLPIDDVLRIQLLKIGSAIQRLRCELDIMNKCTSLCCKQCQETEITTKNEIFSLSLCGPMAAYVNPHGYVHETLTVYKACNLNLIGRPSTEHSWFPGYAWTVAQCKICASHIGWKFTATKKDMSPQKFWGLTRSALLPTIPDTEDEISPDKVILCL

[3] = target: T1, Protein cereblon/Heat shock protein HSP 90-alpha/Heat shock protein HSP 90-beta; test: Protac activity at CRBN/HSP90 in human MCF7 cells assessed as reduction in HSP90 protein expression level at 2 uM measured after 6 hrs by western blot analysis; type: cell-based
Heat shock protein HSP90 = Heat shock protein HSP90 (Homo sapiens, UniProt P07900+P08238); test: Binding affinity to HSP90 (unknown origin) upto 250 uM by BLI assay; type: protein assay
MCF7 [4] = test: Anticancer activity against human MCF7 cells assessed as inhibition of colony formation at 2 to 10 uM measured after 48 hrs by crystal violet staining based assay; type: functional, cell-based; settings: dose 2-10 µM, DDE = dose-dependent effect
4T1 [5] = test: Anticancer activity against mouse 4T1 cells assessed as inhibition of cell proliferation measured after 72 hrs by MTT assay; type: functional, cell-based; settings: 4T1, 72 h
MDA-MB-468 = test: Anticancer activity against human MDA-MB-468 cells assessed as inhibition of cell proliferation measured after 72 hrs by MTT assay; type: functional, cell-based; settings: MDA-MB-468, 72 h
[6] = Tmax in rat at 15 mg/kg, ip measured after 8 hrs; type: ADME, organism-based; settings: in vivo
[7] = Cmax in rat at 15 mg/kg, ip measured after 8 hrs; type: ADME, organism-based; design: time 8 hrs, dose 15 mg/kg, route ip; settings: in vivo
[8] = AUC in rat at 15 mg/kg, ip measured after 8 hrs; type: ADME, organism-based; design: dose 15 mg/kg, time 8 hrs, route ip; settings: in vivo
[9] = AUCinfinity in rat at 15 mg/kg, ip measured after 8 hrs; type: ADME, organism-based; design: dose 15 mg/kg, time 8 hrs, route ip; settings: in vivo
[10] = Half life in rat at 15 mg/kg, ip measured after 8 hrs; type: ADME, organism-based; settings: in vivo
4T1 [11] = test: Antitumor activity against female BALB/c mouse xenografted with 4T1 cells assessed as tumor growth inhibition at 40 mg/kg, ip administered daily for 12 days relative to control; type: functional; settings: 4T1, 288 h, time 12 day, read-out: TGI
[12] = Toxicity in BALB/c mouse assessed as body weight loss at 40 mg/kg, ip administered daily for 12 days measured once every 3 days; type: organism-based; settings: in vivo, 288 h, time 12 day
[13] = target: T1, Protein cereblon/Heat shock protein HSP 90-alpha/Heat shock protein HSP 90-beta; test: Protac activity at CRBN/HSP90 in human MCF7 cells assessed as reduction in HSP90 mRNA expression level at 2 uM followed by cycloheximide addition measured upto 12 hrs by qRT-PCR analysis; type: cell-based
[14] = target: T1, Protein cereblon/Heat shock protein HSP 90-alpha/Heat shock protein HSP 90-beta; test: Protac activity at CRBN/HSP90 in human MCF7 cells assessed as HSP90 degradation measured after 6 hrs by western blot analysis; type: cell-based
[15] = target: T1, Protein cereblon/Heat shock protein HSP 90-alpha/Heat shock protein HSP 90-beta; test: Protac activity at CRBN/HSP90 in human MCF7 cells assessed as reduction in AKT protein expression level at 2 uM measured after 6 hrs by western blot analysis; type: cell-based
[16] = target: T1, Protein cereblon/Heat shock protein HSP 90-alpha/Heat shock protein HSP 90-beta; test: Protac activity at CRBN/HSP90 in human MCF7 cells assessed as reduction in p53 protein expression level at 2 uM measured after 6 hrs by western blot analysis; type: cell-based
[17] = target: Heat shock protein HSP 90-alpha (Homo sapiens) (UniProt P07900); test: Degradation of HSP90alpha in human MCF7 cells at 2 uM measured after 6 hrs by western blot analysis; type: cell-based
[18] = Toxicity in BALB/c mouse assessed as death at 40 mg/kg, ip administered daily for 12 days; type: organism-based; settings: in vivo, 288 h, time 12 day
4T1 [19] = test: Antitumor activity against female BALB/c mouse xenografted with 4T1 cells assessed as reduction on tumor weight at 40 mg/kg, ip administered daily for 12 days; type: functional, organism-based; settings: time 12.0 day
4T1 [20] = test: Antitumor activity against female BALB/c mouse xenografted with 4T1 cells assessed as reduction on tumor formation at 40 mg/kg, ip administered daily for 12 days; type: functional, organism-based; settings: time 12.0 day
[21] = target: T1, Protein cereblon/Heat shock protein HSP 90-alpha/Heat shock protein HSP 90-beta; test: Protac activity at CRBN/HSP90 in human MCF7 cells assessed as reduction in HSP90 protein expression level at 2 uM followed by cycloheximide addition measured upto 12 hrs by western blot analysis; type: cell-based
4T1 [22] = test: Antitumor activity against female BALB/c mouse xenografted with 4T1 cells assessed as tumor growth inhibition at 60 mg/kg, ip administered daily for 12 days relative to control; type: functional; settings: 4T1, 288 h, time 12 day, read-out: TGI

COc1cc(C(=O)NCCC#Cc2cn(Cc3ncc(C)c(OC)c3C)c3nc(N)nc(Cl)c23)ccc1NC(=O)[C@@H]1N[C@@H](CC(C)(C)C)[C@](C#N)(c2ccc(Cl)cc2F)[C@H]1c1cccc(Cl)c1F
IC50 (MCF7 [1]): 37.9 µM | IC50 (MDA-MB-231): > 100 µM

COc1cc(C(=O)NCCOCCOCCOCC#Cc2cn(Cc3ncc(C)c(OC)c3C)c3nc(N)nc(Cl)c23)ccc1NC(=O)[C@@H]1N[C@@H](CC(C)(C)C)[C@](C#N)(c2ccc(Cl)cc2F)[C@H]1c1cccc(Cl)c1F
IC50 (MCF7 [1]): > 100 µM | IC50 (MDA-MB-231): > 100 µM

COc1cc(C(=O)NCCOCCOCCOCCOCCOCCOCC#Cc2cn(Cc3ncc(C)c(OC)c3C)c3nc(N)nc(Cl)c23)ccc1NC(=O)[C@@H]1N[C@@H](CC(C)(C)C)[C@](C#N)(c2ccc(Cl)cc2F)[C@H]1c1cccc(Cl)c1F
IC50 (MCF7 [1]): > 100 µM | IC50 (MDA-MB-231): > 100 µM

COc1c(C)cnc(Cn2cc(C#CCCCNc3cccc4c3C(=O)N(C3CCC(=O)NC3=O)C4=O)c3c(Cl)nc(N)nc32)c1C (configuration not stated)
IC50 (MCF7 [1]): 1.45 µM | IC50 (MDA-MB-231): 5.2 µM

COc1c(C)cnc(Cn2cc(C#CCOCCOCCOCCNc3cccc4c3C(=O)N(C3CCC(=O)NC3=O)C4=O)c3c(Cl)nc(N)nc32)c1C (configuration not stated)
IC50 (MCF7 [1]): 2.24 µM | IC50 (MDA-MB-231): 4.85 µM

COc1c(C)cnc(Cn2cc(C#CCOCCNc3cccc4c3C(=O)N(C3CCC(=O)NC3=O)C4=O)c3c(Cl)nc(N)nc32)c1C (configuration not stated)
IC50 (MCF7 [1]): 0.19 µM | IC50 (MDA-MB-231): 0.44 µM

COc1c(C)cnc(Cn2cc(C#CCOCCOCCOCCOCCNc3cccc4c3C(=O)N(C3CCC(=O)NC3=O)C4=O)c3c(Cl)nc(N)nc32)c1C (configuration not stated)
IC50 (MCF7 [1]): 6.12 µM | IC50 (MDA-MB-231): 9.48 µM

COc1c(C)cnc(Cn2cc(C#CCOCCOCCOCCOCCOCCOCCNc3cccc4c3C(=O)N(C3CCC(=O)NC3=O)C4=O)c3c(Cl)nc(N)nc32)c1C (configuration not stated)
IC50 (MCF7 [1]): 3.14 µM | IC50 (MDA-MB-231): 3.88 µM

COc1c(C)cnc(Cn2cc(C#CCCNc3cccc4c3C(=O)N(C3CCC(=O)N(C)C3=O)C4=O)c3c(Cl)nc(N)nc32)c1C (configuration not stated)
IC50 (MCF7 [1]): 2.46 µM | IC50 (MDA-MB-231): 7.77 µM

COc1c(C)cnc(Cn2cc(C#CCNc3cccc4c3C(=O)N(C3CCC(=O)NC3=O)C4=O)c3c(Cl)nc(N)nc32)c1C (configuration not stated)
IC50 (MCF7 [1]): 1.98 µM | IC50 (MDA-MB-231): 20.6 µM

COc1c(C)cnc(Cn2cc(C#CCCCCNc3cccc4c3C(=O)N(C3CCC(=O)NC3=O)C4=O)c3c(Cl)nc(N)nc32)c1C (configuration not stated)
IC50 (MCF7 [1]): 0.25 µM | IC50 (MDA-MB-231): 2.2 µM

COc1cc(C(=O)NCCOCCOCC#Cc2cn(Cc3ncc(C)c(OC)c3C)c3nc(N)nc(Cl)c23)ccc1NC(=O)[C@@H]1N[C@@H](CC(C)(C)C)[C@](C#N)(c2ccc(Cl)cc2F)[C@H]1c1cccc(Cl)c1F
IC50 (MCF7 [1]): 32.9 µM | IC50 (MDA-MB-231): 72.1 µM

COc1cc(C(=O)NCCOCCOCCOCCOCCOCC#Cc2cn(Cc3ncc(C)c(OC)c3C)c3nc(N)nc(Cl)c23)ccc1NC(=O)[C@@H]1N[C@@H](CC(C)(C)C)[C@](C#N)(c2ccc(Cl)cc2F)[C@H]1c1cccc(Cl)c1F
IC50 (MCF7 [1]): > 100 µM | IC50 (MDA-MB-231): > 100 µM

COc1cc(C(=O)NCCCC#Cc2cn(Cc3ncc(C)c(OC)c3C)c3nc(N)nc(Cl)c23)ccc1NC(=O)[C@@H]1N[C@@H](CC(C)(C)C)[C@](C#N)(c2ccc(Cl)cc2F)[C@H]1c1cccc(Cl)c1F
IC50 (MCF7 [1]): 97.3 µM | IC50 (MDA-MB-231): > 100 µM

COc1cc(C(=O)NCC#Cc2cn(Cc3ncc(C)c(OC)c3C)c3nc(N)nc(Cl)c23)ccc1NC(=O)[C@@H]1N[C@@H](CC(C)(C)C)[C@](C#N)(c2ccc(Cl)cc2F)[C@H]1c1cccc(Cl)c1F
IC50 (MCF7 [1]): 20.9 µM | IC50 (MDA-MB-231): > 100 µM

COc1cc(C(=O)NCCOCC#Cc2cn(Cc3ncc(C)c(OC)c3C)c3nc(N)nc(Cl)c23)ccc1NC(=O)[C@@H]1N[C@@H](CC(C)(C)C)[C@](C#N)(c2ccc(Cl)cc2F)[C@H]1c1cccc(Cl)c1F
IC50 (MCF7 [1]): 71.7 µM | IC50 (MDA-MB-231): 65.9 µM

Nc1cccc2c1C(=O)N(C1CCC(=O)NC1=O)C2=O (configuration not stated) [POMALIDOMIDE]
IC50 (MCF7 [1]): > 100 µM | IC50 (MDA-MB-231): > 100 µM

COc1c(C)cnc(Cn2cc(C#CCCNc3cccc4c3C(=O)N(C3CCC(=O)NC3=O)C4=O)c3c(Cl)nc(N)nc32)c1C (configuration not stated)
IC50 (MCF7 [1]): 0.63 µM | IC50 (MDA-MB-231): 3.53 µM | Emax [2]: 83.4% | Activity [3]: Active | Kd (Heat shock protein HSP90): 1.18 10^-4M | Activity (MCF7 [4]): Dde | IC50 (4T1 [5]): 0.61 µM | IC50 (MDA-MB-468): 2.95 µM | Tmax [6]: 1.85 h | Cmax [7]: 260 ng/mL | AUC [8]: 1360 ng·h/mL | AUC [9]: 2080 ng·h/mL | half-life [10]: 4.5 h | inhibition in vivo at 40 mg/kg (4T1 [11]): 76.4% | Activity [12]: 19.7% | Activity [13]: Active | DC50 [14]: 0.99 µM | Activity [15]: Active | Activity [16]: Active | Activity [17]: Active | Activity [18]: Non-Toxic | Activity (4T1 [19]): Active | Activity (4T1 [20]): Active | Activity [21]: Active

COc1cc(C(=O)NCCOCCOCCOCCOCC#Cc2cn(Cc3ncc(C)c(OC)c3C)c3nc(N)nc(Cl)c23)ccc1NC(=O)[C@@H]1N[C@@H](CC(C)(C)C)[C@](C#N)(c2ccc(Cl)cc2F)[C@H]1c1cccc(Cl)c1F
IC50 (MCF7 [1]): > 100 µM | IC50 (MDA-MB-231): > 100 µM

COc1c(C)cnc(Cn2cc(C#CCOCCOCCOCCOCCOCCNc3cccc4c3C(=O)N(C3CCC(=O)NC3=O)C4=O)c3c(Cl)nc(N)nc32)c1C (configuration not stated)
IC50 (MCF7 [1]): 5.63 µM | IC50 (MDA-MB-231): 3.87 µM

COc1c(C)cnc(Cn2cnc3c(Cl)nc(N)nc32)c1C [BIIB021]
IC50 (MCF7 [1]): 1.12 µM | IC50 (MDA-MB-231): 7.72 µM | Activity (MCF7 [4]): Dde | IC50 (4T1 [5]): 0.55 µM | IC50 (MDA-MB-468): 2.52 µM | inhibition in vivo at 60 mg/kg (4T1 [22]): 31.8%

COc1c(C)cnc(Cn2cc(C#CCOCCOCCNc3cccc4c3C(=O)N(C3CCC(=O)NC3=O)C4=O)c3c(Cl)nc(N)nc32)c1C (configuration not stated)
IC50 (MCF7 [1]): 0.98 µM | IC50 (MDA-MB-231): 0.76 µM

COc1cc(C(=O)NCCCCC#Cc2cn(Cc3ncc(C)c(OC)c3C)c3nc(N)nc(Cl)c23)ccc1NC(=O)[C@@H]1N[C@@H](CC(C)(C)C)[C@](C#N)(c2ccc(Cl)cc2F)[C@H]1c1cccc(Cl)c1F
IC50 (MCF7 [1]): > 100 µM | IC50 (MDA-MB-231): > 100 µM
